{"source": "patent US20040226502A1", "about": "“Crystal structure of 2c-methyl-d-erythritol 2,4-cyclodiphosphate synthase” (priority 2001, published 2004)", "key": {"[1]": {"biological_target": "T1, 2C-methyl-D-erythritol 2,4-cyclodiphosphate synthase (Escherichia coli, UniProt P62617)", "T1 construct": "His6 (from vector pQE30) (N); made in house; host or cells: E. coli XL1-Blue carrying pQEispF", "T1 sequence (P62617 whole entry)": "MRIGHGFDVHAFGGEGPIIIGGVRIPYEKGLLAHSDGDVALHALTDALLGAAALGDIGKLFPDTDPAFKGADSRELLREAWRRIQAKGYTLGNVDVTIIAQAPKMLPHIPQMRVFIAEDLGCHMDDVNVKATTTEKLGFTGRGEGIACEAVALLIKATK", "format": "biochemical", "settings": "E. coli enzyme, compound as substrate", "protocol": "Assay mixtures contain 50 mM potassium phosphate, pH 7.0, 2 mM DTT, 2 mM MgCl2, 1 mM 4-diphosphocytidyl-2C-methyl-D-erythritol 2-phosphate and protein in a total volume of 100 μl. The mixtures are incubated at 37° C. for 20 min. The reactions are terminated by adding EDTA at a final concentration of 4 mM. The samples are centrifuged and the supernatant is analyzed by HPLC using a column of Multospher 120 RP 18-AQ-5 (4.6×250 mm, CS-Chromatographic Service Gmbh) that has been equilibrated and run with Gradient No. 3 at a flow rate 1 ml min^−1 (see below). The effluent is monitored photometrically (270 nm).\nOne unit of 2C-methyl-D-erythritol 2,4-cyclodiphosphate synthase activity is defined as the amount of protein which produced 1 μmol min^−1 of CMP.\nColumn: Multospher 120 RP 18-5 AQ, 250×4.6 mm, particle size 5 μm (CS: Chromatographic Service GmbH, Langerwehe, Germany)"}, "[2]": {"biological_target": "T1, 2C-methyl-D-erythritol 2,4-cyclodiphosphate synthase", "experiment": "Crystal soaking and 3D structure determination of ligand complexes", "format": "binding, E. coli", "settings": "for affinity for the protein (in words): from crystals/structures subs, sub2 and cyt", "protocol": "The following substrate, substrate analoge and product complexes were determined in order to determine binding of these molecules to the synthase:\nsubop: a crystal soaked with 10 mM 4-diphosphocytidyl-2C-methyl-D-erythritol. The zinc atom the water or hydroxyl-group at the zinc is replaced by an oxygen of the beta-phosphate of the diphosphocytidyl-moiety.\nsubs: a crystal soaked with 10 mM 4-diphosphocytidyl-2C-methyl-D-erythritol 2-phosphate and 10 mM EDTA, that contains no zinc.\nsub2: a crystal soaked with 10 mM 4-diphosphocytidyl-2C-methyl-D-erythritol 2-phosphate, that containes zinc and the products CMP and 2C-methyl-D-erythritol 2,4-cyclodiphosphate.\nmgcdp2: a crystal soaked with 2 mM CDP and 5 mM MgCl2\ncyt: a crystal soaked with 10 mM cytidine\nThese structures were determined using the nat2 structure as starting model. Initially a rigid body refinement was carried out followed by positional refinement. Then the substrate, substrate analoge or product molecules were build into the electron density of difference electron density maps, again followed by refinement of atom positions and B-factors.\nCrystals containing the synthase and zinc were incubated for one hour with about 5 mM of a ligand in mother liquor containing 2M ammonium formate, 0.1M HEPES/NaOH at pH 7.0 and 20% D-(−)-2,3-butanediole (purchased from FLUKA) as a cryo-protectant. Crystals were mounted in a nylon-loop and flash frozen in a stream of nitrogen at 100Kelvin with an Oxford cryo stream. […] Diffraction data were measured at that temperature without any indication of radiation damage.\nIn order to obtain a crystal structure of 2C-methyl-D-erythritol 2,4-cyclodiphosphate synthase in complex with CDP, the synthase was crystallized according to example 8. A crystal of suitable size was then soaked in crystallization buffer (see example 8) further containing 5 mM CDP and 5 mM MgCl2.\nThe starting model for the determination of the structure of the complex was the structure of the synthase without a substrate analoge. […]"}}, "data": [{"smiles": "C[C@@](CO)(OP(=O)(O)O)[C@H](O)COP(=O)(O)OP(=O)(O)OC[C@H]1O[C@@H](n2ccc(N)nc2=O)[C@H](O)[C@@H]1O", "note": "[4-diphosphocytidyl-2C-methyl-D-erythritol 2-phosphate]", "values": [{"measurement": "Km", "setting": "[1]", "value": 37, "unit": "µM"}, {"measurement": "vmax", "setting": "[1]", "value": 76, "unit": "µmol/mg/min"}]}, {"smiles": "Nc1ccn([C@@H]2O[C@H](COP(=O)(O)O)[C@@H](O)[C@H]2O)c(=O)n1", "note": "[CMP, cytidine monophosphate]", "values": [{"measurement": "affinity for the protein (in words)", "setting": "[2]", "value": "considerable affinity"}]}, {"smiles": "Nc1ccn([C@@H]2O[C@H](COP(=O)(O)OP(=O)(O)O)[C@@H](O)[C@H]2O)c(=O)n1", "note": "[CDP, cytidine diphosphate]", "values": [{"measurement": "type of inhibition of the synthase (in words)", "setting": "[2]; inferred from binding to a portion of the active site in the synthase-CDP complex", "value": "competitive inhibitor"}]}, {"smiles": "Nc1ccn([C@@H]2O[C@H](CO)[C@@H](O)[C@H]2O)c(=O)n1", "note": "[cytidine]", "values": [{"measurement": "affinity for the protein (in words)", "setting": "[2]", "value": "considerable affinity"}]}]}
